Data set [1] concerns KE37-1 (uninfected) cells. Description: MTT test, growth of non-infected cells. It counts as cell-based. The settings on record: KE37-1, seven days incubation; 10080 min. Here is the method: The KE37-1 (uninfected) and KE37-1/111β (infected) cell lines discussed below are commercially available from the Dr. Robert Gallows Laboratory of the NIH in the United States of America and grown in a medium of RPMI 1640 (GIBCO) and further supplemented with 10% fetal calf serum which contained approximately 100 units of penicillin, 100 μg streptomycin, and approximately 0.25 μg fungizone (Amphotericin B) per milliliter. The human mesenchymal cell lines LC5 and LC5-HIV, discussed below, are deposited with the Collection De L'Institut Pasteur of Paris, France on Mar. 9, 1989 and given the accession numbers I-842 and I-843, respectively. The LC5 and LC5-HIV cell lines were grown in a medium of RPMI 1640 and supplemented with 10% fetal calf serum.
Referring more particularly to FIGS. 1-4, melittin (Seq. ID NO:1) and its specified analogues were tested for their effect on HIV-infected T-lymphoma cells. In this regard the following cell lines were employed in the testing: KE37-1 (uninfected) and KE37-1/111S (infected with HTLV-111β). These infected cells were incubated for a period of seven days under test conditions at a temperature of 37° C. and in the presence of 5% CO2. […] The optical density (OD) of the solution was determined at=600 nm. […]
In general terms: Formazan colour is commonly taken as a measure of viable cells.

The nature of data set [2]: tolerability and clinical investigation of FIV infected cats. It counts as in vivo. The source says:
In the following series of experiments, two naturally FIV infected cats (M and G) were used. These particular cats were kept for more than one year under constant observation in the Clinic for Internal Medicine at the Veterinary School in Munich, Germany before the onset of melittin (Seq. ID NO:1) treatment. In each cat, FIV infection had been confirmed by detecting an antibody ELISA. In this regard, a test marketed under the tradename PetChek® and which is available from the same company in Portland, Maine was employed. As best seen in FIG. 53. The antibody titer against FIV in both cats was approximately 1:50. As a general matter, the overall physical condition of both cats was good during the observation period. […]
During the experiment it was determined that detectable blood serum levels of melittin (Seq. ID NO:1) of about 5 ng/ml could be detected following an injection of melittin equal to […] a few minutes after injection. […] In vitro data has shown that melittin, after this time interval, is found within the cells where it can be detected in tact for more than 48 hours. […] The quantitative effect of melittin on FIV replication was determined quantitatively by utilizing FIV-PCR employing nested primers from the gag region. Quantification was based upon the determination of amplified product in identical samples which have been amplified after different cycle times. […]

The next data set concerns phospholipase A2. Conditions: anterior pituitary; cited from earlier work.

“Also recorded” adds a separate entry of the source.

As for “Gly-Ile-Gly-Ala-Val-Leu-Lys-Val-Leu-Thr-Thr-Gly-Leu-Pro-Ala-Leu-Ile-Ser-Trp-Ile-Lys-Arg-Lys-Arg-Gln-Gln-Amide [melittin]”, in data set [1], the “concentration toxic to non-infected cells” value was “above 5 μg per ml”. Further, the “tolerability / adverse reactions” value in data set [2] (50 to 500 mg/kg s.c. twice weekly, eight weeks) was “appeared to tolerate the numerous injections without any clinically noticeable negative reactions; also recorded: no adverse reaction or clinical abnormalities could be observed in either animal”. Besides, the pneumonitis result in data set [2] (cat M) is listed as “improved during the melittin treatment”. Moreover, in the data set on phospholipase A2, the “effect on phospholipase A2” value is “stimulates endogenous phospholipase A2 in the anterior pituitary leading to growth hormone secretion”.

The values above are taken from patent publication US5770688A, “Method and composition for the treatment of mammalian HIV infection” (GSF-Forschungszentrum fur Umwelt und Gesundheit GmbH, priority 1989, dated 1998).
